# Reference: patent US20220340633A1 (Adepthera LLC, priority 2016, published 2022)
# Entries after “also recorded” stand apart in the source; their conditions may differ. Positions of bridges follow the written chain, without caps; N, C: chain ends. Non-standard residues stand in square brackets, D forms with d. Residues, ends and D or L forms follow the SMILES beside them. *: point of attachment. Palmitoyl = CCCCCCCCCCCCCCCC(=O)*; AEEA = NCCOCCOCC(=O)O
# Assays:
# CLR/RAMP2 receptor = biological target: T1, CLR/RAMP2 receptor (Homo sapiens, UniProt O60895+Q16602); assay: CLR/RAMP2 arrestin receptor activation assay (agonist); type: cell-based; settings: for Emax: CHO-K1, read-out: CLR/RAMP 2 Max Activity % of positive control, CHO-K1 cells; for EC50: CHO-K1 cells stably expressing CLR/RAMP2, arrestin, positive control ADM, read-out: CLR/RAMP 2 EC50
# T1 construct: host or cells: CHO-K1 cells
# T1 sequence (Q16602 23-461): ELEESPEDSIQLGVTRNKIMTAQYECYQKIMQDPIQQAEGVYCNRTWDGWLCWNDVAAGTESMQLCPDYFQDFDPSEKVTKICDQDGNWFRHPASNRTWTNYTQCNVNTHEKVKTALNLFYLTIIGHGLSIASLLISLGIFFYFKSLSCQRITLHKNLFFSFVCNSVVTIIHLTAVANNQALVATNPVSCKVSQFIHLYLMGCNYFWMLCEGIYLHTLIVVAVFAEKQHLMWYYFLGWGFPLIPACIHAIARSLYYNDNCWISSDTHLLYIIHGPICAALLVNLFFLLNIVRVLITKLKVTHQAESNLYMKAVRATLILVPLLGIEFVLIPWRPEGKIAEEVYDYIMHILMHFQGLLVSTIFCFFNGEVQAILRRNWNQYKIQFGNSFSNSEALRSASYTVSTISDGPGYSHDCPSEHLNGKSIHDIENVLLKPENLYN
# T1 sequence (O60895 43-175): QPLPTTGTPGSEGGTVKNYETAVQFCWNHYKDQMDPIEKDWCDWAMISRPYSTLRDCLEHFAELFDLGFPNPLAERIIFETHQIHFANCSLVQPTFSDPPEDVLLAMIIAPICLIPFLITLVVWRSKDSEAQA
# Experimental: (§1) Using a receptor activation assay, the dose-dependent stimulatory response of peptide agonists of the present invention on a CLR/RAMP1 receptor, a CLR/RAMP2, or a CLR/RAMP3 receptor complex was determined. A cell line carrying the recombinant CLR/RAMP1, CLR/RAMP2, or a CLR/RAMP3 receptor was employed in the assay. Peptide agonist activities were tested, in duplicate, at 10 different concentrations, starting with 1.0 μM and serially diluted 3-fold, in DMSO. […] The CLR/RAMP1 cAMP, CLR/RAMP2 arrestin assays, and CLR/RAMP3 cAMP (DiscoveRx, Fremont, Calif.) were used.
# CLR/RAMP1 receptor = CLR/RAMP1 receptor (Homo sapiens, UniProt O60894+Q16602); assay: CLR/RAMP1 cAMP receptor activation assay (agonist); type: cell-based; parameters: host or cells: 1321N1 cells; settings: for Emax: 1321-N1, read-out: CLR/RAMP 1 Max Activity % of positive control, 1321N1 cells, % of positive control (β-CGRP); for EC50: 1321N1 cells stably expressing CLR/RAMP1, cAMP, positive control β-CGRP, read-out: CLR/RAMP 1 EC50
# Sequence of CLR/RAMP1 receptor (Q16602 23-461): as the sequence (Q16602 23-461) above
# Sequence of CLR/RAMP1 receptor (O60894 27-148): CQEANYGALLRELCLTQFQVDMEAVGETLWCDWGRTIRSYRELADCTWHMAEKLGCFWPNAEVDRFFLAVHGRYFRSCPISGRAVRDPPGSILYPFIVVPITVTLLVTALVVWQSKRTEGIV
# Experimental: as §1
# CLR/RAMP3 receptor = CLR/RAMP3 receptor (Homo sapiens, UniProt O60896+Q16602); assay: CLR/RAMP3 cAMP receptor activation assay (agonist); type: cell-based; parameters: host or cells: CHO-K1 cells; settings: CHO-K1, read-out: CLR/RAMP 3 Max Activity % of positive control
# Sequence of CLR/RAMP3 receptor (Q16602 23-461): as the sequence (Q16602 23-461) above
# Sequence of CLR/RAMP3 receptor (O60896 24-148): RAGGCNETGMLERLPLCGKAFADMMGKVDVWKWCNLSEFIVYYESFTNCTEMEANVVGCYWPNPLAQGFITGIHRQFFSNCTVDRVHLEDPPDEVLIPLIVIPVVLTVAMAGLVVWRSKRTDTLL
# Experimental: as §1
# [1] = test system: primary human lymphatic endothelia cells (HLEC); assay: HLEC survival in medium with 0.1% FBS, MTS assay; settings: 30, 100, and 300 nM, 72 hrs
# Experimental: (§2) The cells were cultured for 72 hrs, and cell viability was assayed with the MTS assay (Promega).
# [2] = test system: primary human lymphatic endothelia cells (HLEC); assay: HLEC proliferation in medium with 2% FBS, MTS assay; settings: 30, 100, and 300 nM, 72 hrs
# Experimental: as §2
SMILES,Emax (CLR/RAMP2 receptor; % of positive control (ADM)) [%],EC50 (CLR/RAMP2 receptor) [nM],Emax (CLR/RAMP1 receptor) [%],EC50 (CLR/RAMP1 receptor) [nM],Emax (CLR/RAMP3 receptor) [%],"CLR/RAMP 2 Max Activity % of positive control (CLR/RAMP2 receptor; CHO-K1 cells, % of positive control (ADM)) [%]",HLEC survival (in words) [1],HLEC proliferation (in words) [2],receptor specificity of agonist (CLR/RAMP2 receptor; CLR/RAMP2 versus CLR/RAMP1)
CCCCCCCCCCCCCCCC(=O)NCCCC[C@H](NC(=O)COCCOCCN)C(=O)NCC(=O)N[C@H]1CSSC[C@@H](C(=O)N[C@H](C(=O)N[C@H](C(=O)N[C@@H](CCC(N)=O)C(=O)N[C@@H](CCCCN)C(=O)N[C@@H](CC(C)C)C(=O)N[C@@H](C)C(=O)N[C@@H](Cc2c[nH]cn2)C(=O)N[C@@H](CCC(N)=O)C(=O)N[C@H](C(=O)N[C@@H](Cc2ccc(O)cc2)C(=O)N[C@@H](CCC(N)=O)C(=O)N[C@@H](Cc2ccccc2)C(=O)N[C@H](C(=O)N[C@@H](CC(=O)O)C(=O)N[C@@H](CCCCN)C(=O)N[C@@H](CC(=O)O)C(=O)N[C@@H](CO)C(=O)N[C@@H](C)C(=O)N2CCC[C@H]2C(=O)N[C@H](C(=O)N[C@@H](CC(=O)O)C(=O)N2CCC[C@H]2C(=O)N[C@@H](CO)C(=O)N[C@@H](CO)C(=O)N2CCC[C@H]2C(=O)N[C@@H](Cc2c[nH]cn2)C(=O)N[C@@H](CO)C(=O)N[C@@H](Cc2ccc(O)cc2)C(N)=O)C(C)C)[C@@H](C)O)[C@@H](C)CC)C(C)C)[C@@H](C)O)NC(=O)[C@H]([C@@H](C)O)NC(=O)CNC(=O)[C@H](Cc2ccccc2)NC(=O)[C@H](CCCNC(=N)N)NC1=O [SEQ ID NO: 48] (H-[AEEA]K(Palmitoyl)GCRFGTCTVQKLAHQIYQFTDKDSAPVDPSSPHSY-NH2; disulfide 4-9),77,0.2,78,0.3,141,–,–,–,–
CCCCCCCCCCCCCCCC(=O)NCCCC[C@H](NC(=O)COCCOCCN)C(=O)NCC(=O)N[C@H]1CSSC[C@@H](C(=O)N[C@H](C(=O)N[C@H](C(=O)N[C@@H](CCC(N)=O)C(=O)N[C@@H](CCCCN)C(=O)N[C@@H](CC(C)C)C(=O)N[C@@H](C)C(=O)N[C@@H](Cc2c[nH]cn2)C(=O)N[C@@H](CCC(N)=O)C(=O)N[C@H](C(=O)N[C@@H](Cc2ccc(O)cc2)C(=O)N[C@@H](CCC(N)=O)C(=O)N[C@@H](Cc2ccccc2)C(=O)N[C@H](C(=O)N[C@@H](CC(=O)O)C(=O)N[C@@H](CCCCN)C(=O)N[C@@H](CC(=O)O)C(=O)N[C@@H](CCCCN)C(=O)N[C@@H](CC(=O)O)C(=O)N[C@@H](CC(N)=O)C(=O)N[C@@H](CO)C(=O)N[C@@H](C)C(=O)N2CCC[C@H]2C(=O)N[C@H](C(=O)N[C@@H](CC(=O)O)C(=O)N2CCC[C@H]2C(=O)N[C@@H](CO)C(=O)N[C@@H](CO)C(=O)N2CCC[C@H]2C(=O)N[C@@H](Cc2c[nH]cn2)C(=O)N[C@@H](CO)C(=O)N[C@@H](Cc2ccc(O)cc2)C(N)=O)C(C)C)[C@@H](C)O)[C@@H](C)CC)C(C)C)[C@@H](C)O)NC(=O)[C@H]([C@@H](C)O)NC(=O)CNC(=O)[C@H](Cc2ccccc2)NC(=O)[C@H](CCCNC(=N)N)NC1=O [SEQ ID NO: 28],–,0.5,54,0.3,117,143,dose-dependently stimulated; also recorded: significantly promote,dose-dependently stimulated; also recorded: significantly promote,–
"CC[C@H](C)[C@H](NC(=O)[C@H](CCC(N)=O)NC(=O)[C@H](Cc1c[nH]cn1)NC(=O)[C@H](C)NC(=O)[C@H](CC(C)C)NC(=O)[C@H](CCCCN)NC(=O)[C@H](CCC(N)=O)NC(=O)[C@@H](NC(=O)[C@@H](NC(=O)[C@@H]1CSSC[C@H](NC(=O)CNC(=O)[C@H](Cc2ccccc2)NC(C)=O)C(=O)N[C@@H](CCCNC(=N)N)C(=O)N[C@@H](Cc2ccccc2)C(=O)NCC(=O)N[C@@H]([C@@H](C)O)C(=O)N1)[C@@H](C)O)C(C)C)C(=O)N[C@@H](Cc1ccc(O)cc1)C(=O)N[C@@H](CCC(N)=O)C(=O)N[C@@H](Cc1ccccc1)C(=O)N[C@H](C(=O)N[C@@H](CC(=O)O)C(=O)N[C@@H](CCCCN)C(=O)N[C@@H](CC(=O)O)C(=O)N[C@@H](CCCCN)C(=O)N[C@@H](CC(=O)O)C(=O)N[C@@H](CC(N)=O)C(=O)N[C@H](C(=O)N[C@@H](C)C(=O)N1CCC[C@H]1C(=O)N[C@@H](CCCNC(=N)N)C(=O)N[C@@H](CO)C(=O)N[C@@H](CCCCN)C(=O)N[C@H](C(=O)N[C@@H](CO)C(=O)N1CCC[C@H]1C(=O)N[C@@H](CCC(N)=O)C(=O)NCC(=O)N[C@@H](Cc1ccc(O)cc1)C(N)=O)[C@@H](C)CC)C(C)C)[C@@H](C)O [SEQ ID NO: 53, reference compound]",102,–,69,–,–,–,minimal effects; also recorded: negligible effects,minimal effects; also recorded: negligible effects,–
"CC[C@H](C)[C@H](NC(=O)[C@H](CCC(N)=O)NC(=O)[C@H](Cc1c[nH]cn1)NC(=O)[C@H](C)NC(=O)[C@H](CC(C)C)NC(=O)[C@H](CCCCN)NC(=O)[C@H](CCC(N)=O)NC(=O)[C@@H](NC(=O)[C@@H](NC(=O)[C@@H]1CSSC[C@H](NC(=O)CNC(=O)[C@H](Cc2ccccc2)NC(=O)[C@H](CO)NC(=O)[C@H](CCCNC(=N)N)NC(=O)[C@H](CC(C)C)NC(=O)CNC(=O)[C@H](CCC(N)=O)NC(=O)[C@H](Cc2ccccc2)NC(=O)[C@H](CC(N)=O)NC(=O)[C@H](CC(N)=O)NC(=O)[C@H](CCSC)NC(=O)[C@H](CO)NC(=O)[C@H](CCC(N)=O)NC(=O)[C@H](CCCNC(=N)N)NC(=O)[C@H](Cc2ccc(O)cc2)NC(C)=O)C(=O)N[C@@H](CCCNC(=N)N)C(=O)N[C@@H](Cc2ccccc2)C(=O)NCC(=O)N[C@@H]([C@@H](C)O)C(=O)N1)[C@@H](C)O)C(C)C)C(=O)N[C@@H](Cc1ccc(O)cc1)C(=O)N[C@@H](CCC(N)=O)C(=O)N[C@@H](Cc1ccccc1)C(=O)N[C@H](C(=O)N[C@@H](CC(=O)O)C(=O)N[C@@H](CCCCN)C(=O)N[C@@H](CC(=O)O)C(=O)N[C@@H](CCCCN)C(=O)N[C@@H](CC(=O)O)C(=O)N[C@@H](CC(N)=O)C(=O)N[C@H](C(=O)N[C@@H](C)C(=O)N1CCC[C@H]1C(=O)N[C@@H](CCCNC(=N)N)C(=O)N[C@@H](CO)C(=O)N[C@@H](CCCCN)C(=O)N[C@H](C(=O)N[C@@H](CO)C(=O)N1CCC[C@H]1C(=O)N[C@@H](CCC(N)=O)C(=O)NCC(=O)N[C@@H](Cc1ccc(O)cc1)C(N)=O)[C@@H](C)CC)C(C)C)[C@@H](C)O [SEQ ID NO: 54, reference compound]",–,–,–,–,–,–,minimal effects; also recorded: negligible effects,minimal effects; also recorded: negligible effects,–
CCCCCCCCCCCCCCCC(=O)NCCCC[C@H](NC(=O)COCCOCCN)C(=O)NCC(=O)N[C@H]1CSSC[C@@H](C(=O)N[C@H](C(=O)N[C@H](C(=O)N[C@@H](CCC(N)=O)C(=O)N[C@@H](CCCCN)C(=O)N[C@@H](CC(C)C)C(=O)N[C@@H](C)C(=O)N[C@@H](Cc2c[nH]cn2)C(=O)N[C@@H](CCC(N)=O)C(=O)N[C@H](C(=O)N[C@@H](Cc2ccc(O)cc2)C(=O)N[C@@H](CCC(N)=O)C(=O)N[C@@H](Cc2ccccc2)C(=O)N[C@H](C(=O)N[C@@H](CC(=O)O)C(=O)N[C@@H](CCCCN)C(=O)N[C@@H](CC(=O)O)C(=O)N[C@@H](CCCCN)C(=O)N[C@@H](CC(=O)O)C(=O)N[C@@H](CC(N)=O)C(=O)N[C@H](C(=O)N[C@@H](C)C(=O)N2CCC[C@H]2C(=O)N[C@@H](CCCNC(=N)N)C(=O)N[C@@H](CO)C(=O)N[C@@H](CCCCN)C(=O)N[C@H](C(=O)N[C@@H](CO)C(=O)N2CCC[C@H]2C(=O)N[C@@H](CCC(N)=O)C(=O)NCC(=O)N[C@@H](Cc2ccc(O)cc2)C(N)=O)[C@@H](C)CC)C(C)C)[C@@H](C)O)[C@@H](C)CC)C(C)C)[C@@H](C)O)NC(=O)[C@H]([C@@H](C)O)NC(=O)CNC(=O)[C@H](Cc2ccccc2)NC(=O)[C@H](CCCNC(=N)N)NC1=O [SEQ ID NO: 69],147,–,70,–,127,–,dose-dependently stimulated; also recorded: significantly promote,dose-dependently stimulated; also recorded: significantly promote,–
CCCCCCCCCCCCCCCC(=O)NCCCC[C@H](NC(=O)COCCOCCN)C(=O)NCC(=O)N[C@H]1CSSC[C@@H](C(=O)N[C@H](C(=O)N[C@H](C(=O)N[C@@H](CCC(N)=O)C(=O)N[C@@H](CCCCN)C(=O)N[C@@H](CC(C)C)C(=O)N[C@@H](C)C(=O)N[C@@H](Cc2c[nH]cn2)C(=O)N[C@@H](CCC(N)=O)C(=O)N[C@H](C(=O)N[C@@H](Cc2ccc(O)cc2)C(=O)N[C@@H](CCC(N)=O)C(=O)N[C@@H](Cc2ccccc2)C(=O)N[C@H](C(=O)N[C@@H](CC(=O)O)C(=O)N[C@@H](CCCCN)C(=O)N[C@@H](CC(=O)O)C(=O)N[C@H](C(=O)N[C@@H](C)C(=O)N2CCC[C@H]2C(=O)N[C@@H](CCCNC(=N)N)C(=O)N[C@@H](CO)C(=O)N[C@@H](CCCCN)C(=O)N[C@H](C(=O)N[C@@H](CO)C(=O)N2CCC[C@H]2C(=O)N[C@@H](CCC(N)=O)C(=O)NCC(=O)N[C@@H](Cc2ccc(O)cc2)C(N)=O)[C@@H](C)CC)C(C)C)[C@@H](C)O)[C@@H](C)CC)C(C)C)[C@@H](C)O)NC(=O)[C@H]([C@@H](C)O)NC(=O)CNC(=O)[C@H](Cc2ccccc2)NC(=O)[C@H](CCCNC(=N)N)NC1=O [SEQ ID NO: 101],74,–,56,–,129,–,–,–,CLR/RAMP2-specific
